# Results: US11426441B2, “Composition comprising protein phosphatase 1 inhibitory peptide for treating vascular diseases” (BethphaGen Inc., priority 2016, dated 2022)
# No end group written: not given here.
# Experiments:
# eNOS and Akt = eNOS and Akt phosphorylation in PAECs (western blotting); assay type: cell-based
# Experimental: FIGS. 16a, 16b and 16c. (16a-16b) PAECs were treated with 3 μM ψPLB-SE for 1 hour, and protein expression was quantitatively analyzed through western blotting using antibodies against Phospho-eNOS (ser1177), total eNOS, phospho-Akt (Ser473, Thr308), total Akt, and GAPDH. (16c) The pulmonary tissue lysate was subjected to immunoprecipitation using PP1 antibody to investigate the interactions of PP1 with eNOS and Akt depending on the presence or absence of the treatment with ψPLB-SE using respective antibodies therefor.
# FIGS. 17a, 17b and 17c. (17a) PAECs were treated with 50 μM LY294002, a PI3K inhibitor, for 24 hours, and then treated with 3 μM ψPLB-SE for 1 hour. Protein expression was quantitatively analyzed through western blotting using antibodies against Phospho-eNOS (ser1177), total eNOS, phospho-Akt (Ser473, Thr308), total Akt, and GAPDH. (17b) PAECs were treated with 10 μM inhibitor IV, an Akt inhibitor, for 2 hours, and then treated with 3 μM ψPLB-SE for 1 hour. Protein expression was quantitatively analyzed through western blotting using antibodies against total eNOS and GAPDH. (17c) PAECs were treated with 100 nM OA, a PP1 inhibitor, for 24 hours, and then treated with 3 μM ψPLB-SE for 1 hour. Protein expression was quantitatively analyzed through western blotting using antibodies against Phospho-eNOS (ser1177), total eNOS, phospho-Akt (Ser473, Thr308), total Akt, and GAPDH.
# ψPLB-SE (RAE16TIEMPQ; SEQ ID NO: 2) was derived from the PLB protein sequence surrounding the Ser16 phosphorylation site. To facilitate uptake into cells, the peptide was conjugated to the cell penetrating peptide dNP2 ([…]; SEQ ID NO: 21) or TAT (YGRKKRRQRRR; SEQ ID NO: 22). The peptides used in the present invention were PLB-SE (RAETIEMPQ; SEQ ID NO: 2) and control peptide (RASTIEMPQ; SEQ ID NO: 23). PLB-SE and cell penetrating peptide were connected by a linker peptide (GGG; SEQ ID NO: 24) The peptides (purity of 95% or higher, AnyGen, Gwangju, Korea) was resuspended in double-distilled water or physiological saline at a stock concentration of 3 mM (cells), 2.5 mg/ml (rats), or 500 μg/ml (mice). The rats were treated with 1 mg/kg peptides and mice were treated with 2 mg/kg peptides. The rat aortic smooth muscle cells (RASMCs), human coronary smooth muscle cells (HCSMCs), pulmonary arterial endothelial cells (PAECs), and pulmonary arterial smooth muscle cells (PASMCs) were treated with the peptides at a final concentration of 3 μM for 1 hour. The PI3K inhibitor LY294002 (Millipore, USA), the Akt inhibitor Inhibitor IV (Calbiochem, USA), and the PP1 inhibitor okadaic acid (Sigma Aldrich, USA), used in the experiments using pulmonary arterial endothelial cells (PAECs), were purchased. For the monocrotaline aqueous solution, the monocrotaline powder (Sigma Aldrich, USA) was dissolved in a small amount of a 1 M hydrochloric acid solution (HCL), diluted with sterilized distilled water, and adjusted to pH 7.35 by addition of sodium hydroxide (NaOH). The animals were bred and observed in the same conditions as in the control group during the experiment periods. In addition, the calcium ionophore A23187 and the calpain I and II inhibitors MDL28170 and […] were purchased from Sigma-Aldrich (St. Louis, Mo., USA).
# Vascular smooth muscle cells (VSMCs) were homogenized in a minimal volume of 50 mM Tris-HCl, pH 7.4, supplemented with a broad-spectrum protease inhibitor cocktail (Calbiochem). The proteins were separated by SDS-PAGE and then transferred to polyvinylidene fluoride membranes (Schleicher & Schuell). After blocking with 5% (w/v) non-fat milk for 1 hour and washing with TBST, the membranes were incubated with antibodies against SERCA2a, SERCA2b (21st century biochemical), PCNA (abcam), GAPDH (Sigma-Aldrich), phospho-eNOS, eNOS, phospho-eIF2α, eIF2α (cell signaling), Vimentin, α-SMA, BMPR2 (Santa cruz), phospho-Akt, Akt (cell signaling), phospho-phospholamban (Merck), and Phospholamban (cell signaling). […]
# SERCA2a = settings: in vitro and ex vivo; Oh J G et al. (2013); cited from earlier work
# [1] = tested on: balloon-injured rat carotid arteries; test: Balloon-induced injury of rat carotid artery; assay type: in vivo
# Text: The left common carotid artery was injured by an infiltration of 2F Fogarty balloon embolectomy catheter. In brief, the rats were anesthetized with isoflurane gas (70% N2O/30% O2), the left external carotid artery was exposed, and branches thereof were electro-coagulated. A catheter was inserted approximately 1 cm into the external carotid artery via a transverse arteriotomy, and endothelial denudation was achieved by three passes of the catheter along the common carotid artery. After removal of the catheter, the penetrated area was clamped, and 5 μg of the peptides solubilized in 200 μL of phosphate-buffered saline (PBS) was injected. After incubation for 15 minutes, the sealed carotid artery was re-opened to resume blood flow. The rats were allowed to recover for 10 days, unless otherwise stated. For histological analyses, the rats were anesthetized, and the common carotid artery was excised after transcardiac perfusion with heparinized saline containing 3.7% (w/v) formaldehyde. The specimens were embedded in paraffin, and paraffin blocks were sectioned with the Leica RM2255 rotary microtome. Two serial tissue sections (thickness, 4 μm) were obtained from the centre of the common carotid artery and stained with haematoxylin and eosin. The lamina, internal elastic lamina, and external elastic lamina were measured with the National Institutes of Health ImageJ software (version 1.62). The intimal and medial areas were determined by subtracting the laminal area from the internal elastic laminal area and by subtracting the internal elastic laminal area from the external elastic laminal area, respectively. The values from two serial sections per rat were averaged for analysis.
# The carotid artery was fixed in 4% (w/v) paraformaldehyde for 48 hours at room temperature and then washed with PBS. After embedding the specimens in paraffin and sectioning the tissue blocks, the sections were treated with hydrogen peroxide to quench endogenous peroxidase activity, followed by boiling in antigen retrieval buffer. […]
sequence,measurement,setting,value
"RAETIEMPQ (not fully specified) [ψPLB-SE, 9-mer PP1 decoy peptide mimicking phosphorylated PLB; conjugated via GGG linker to cell penetrating peptide dNP2 or TAT]",phosphorylation of Akt and eNOS,eNOS and Akt; 100 nM okadaic acid followed by ψPLB-SE,further increased
same,phosphorylation of Akt serine 473 and threonine 308,eNOS and Akt; 3 μM for 1 hour,increased
same,phosphorylation of eNOS serine 1177,eNOS and Akt; 3 μM for 1 hour,increased
same,phosphorylation of eNOS threonine 495,eNOS and Akt; 3 μM for 1 hour,reduced
same,eNOS phosphorylation,eNOS and Akt; Inhibitor IV 10 μM then ψPLB-SE,did not increase
same,phosphorylation of eNOS and Akt,eNOS and Akt; LY294002 50 μM followed by ψPLB-SE,increased
same,SERCA2a activity in the heart after ischemia/reperfusion,SERCA2a,restored
same,"in vivo VSMC proliferation (α-SMA, PCNA immunostaining)","[1]; balloon-injured rat carotid artery, peptide administered to the injured site",inhibits
same,neointimal formation (haematoxylin and eosin staining),"[1]; balloon-injured rat carotid artery, peptide administered to the injured site, compared with control peptide",inhibited
same,reduction of SERCA2a level by balloon angioplasty-mediated injury (immunostaining),[1]; carotid artery sections,inhibited
